“And” between values parts separate entries of the source, which are not always exact repeats. Identical values can stand only once.
Columns and labels:
[1] = tested on: cleavage enzymes of cholesterol side chains; conditions: related art; cited from earlier work
[2] = tested on: biosynthesis of aldosterone; conditions: related art; cited from earlier work
[3] = tested on: plasma aldosterone; assay: Lowering effect on plasma aldosterone; format: in vivo, male SD rats
[4] = tested on: plasma 17α-hydroxyprogesterone; assay: Elevating effect on plasma 17α-hydroxyprogesterone; format: in vivo, male SD rats

Compound	decrease of glucocorticoids and mineral corticoids [1]	potency to inhibit cleavage enzymes of cholesterol side chains [1]	inhibition of the biosynthesis of aldosterone [2]	minimal effective dose ([3]; Rattus norvegicus, po, read-out: dose decreasing plasma aldosterone level)	Decrease in plasma aldosterone ([3]; rat, in vivo)	change of plasma levels of aldosterone ([3]; rat, in vivo)	minimal effective dose ([4]; Rattus norvegicus, po, read-out: dose elevating plasma 17α-hydroxyprogesterone level)	Elevation in plasma 17α-hydroxyprogesterone ([4]; rat, in vivo)	change of plasma levels of 17α-hydroxyprogesterone ([4]; rat, in vivo)
CCC1(c2ccc(N)cc2)CCC(=O)NC1=O (stereo not drawn) [AG, Aminoglutethimide]	causes therefore the decrease of glucocorticoids and mineral corticoids	higher potency to inhibit cleavage enzymes of cholesterol side chains							
N#Cc1ccc(C2CCCc3cncn32)cc1 (stereo not drawn) [CGS 16949A, 5-(p-cyanophenyl)-5,6,7,8-tetrahydroimidazo[1,5-a]pyridine]			inhibits the biosynthesis of aldosterone	≥ 0.1 mg/kg	37% and 55%	did change	≥ 0.1 mg/kg	169% and 313%	did change

From patent US5587392A, “Azolyl methyl phenyl derivatives having aromatase inhibitory activity” (Mochida Pharmaceutical Co., Ltd., priority 1994, dated 1996)
